Assay results: US7851629B2, “Disubstituted phenylpiperidines as modulators of dopamine and serotonin neurotransmission” (NSAB, Filial af Neurosearch Sweden AB, Sverige, priority 2004, dated 2010)
Values joined by “and” are separate entries in the source; they are usually repeats but may differ in a detail not shown here. Equal values may be shown once. Where a name gives a salt, the structure may show the parent alone.

Legend:
[1] = tested on: schizophrenic patients; conditions: selective sigma receptor antagonists; Borison et al 1991, Gewirtz et al 1994; cited from earlier work
[2] = tested on: extracellular 5-HT, dopamine and norepinephrine in the cortex; assay: Microdialysis in awake and freely moving rats, cortex monoamines; assay type: in vivo, rat; conditions: for levels of dopamine in the cortex / levels of norepinephrine in the cortex / 5-HT in the cortex: 50 μmol/kg s.c., pf. cortex; for levels of dopamine in the cortex / levels of norepinephrine in the cortex: FIG. 2-4; for 5-HT in the cortex: FIGS. 2-4
Source text: The microdialysis technique (Ungerstedt, Herrera-Marschitz et al. 1982) is a well established technique for measuring extracellular levels of neurotransmitters (Ungerstedt 1991). The microdialysis technique was used to measure the effect of drugs upon the monoamine transmitters. The appended graphs (FIGS. 1-4) show the effects of one established antidepressant (citalopram) upon 5-HT in the cortex, as well as for three compounds claimed in the present invention (Examples 3, 5, and 6).
Male Sprague-Dawley rats weighing 220-320 g were used throughout the experiments. Before the experiment the animals were group housed, five animals in each cage, with free access to water and food. The animals were housed at least one week after arrival prior to surgery and use in the experiments. Each rat was used only once for microdialysis.
We use a modified version (Waters, Lofberg et al. 1994) of the I-shaped probe (Santiago and Westerink 1990). The dialysis membrane we use is the AN69 polyacrylonitrile/sodium methalylsulfonate copolymer (HOSPITAL; o.d./i.d. 310/220 μm: Gambro, Lund, Sweden). In the dorsal striatum we use probes with an exposed length of 3 mm of dialysis membrane and in the prefrontal cortex the corresponding length is 2.5 mm. The rats were operated under isoflurane inhalation anesthesia while mounted into a Kopf stereotaxic instrument. Coordinates were calculated relative to bregma; dorsal striatum AP+1, ML±2.6, DV−6.3; Pf cortex, AP+3.2, 8° ML±1.2, DV−4.0 according to (Paxinos and Watson 1986). The dialysis probe was positioned in a burr hole under stereotaxic guidance and cemented with phosphatine dental cement.
The rats were housed individually in cages for 48 h before the dialysis experiments, allowing them to recover from surgery and minimizing the risk of drug interactions with the anaesthetic during the following experiments. During this period the rats had free access to food and water. On the day of experiment the rats were connected to a micro perfusion pump via a swivel and were replaced in the cage where they could move freely within its confinements. The perfusion medium was a Ringer's solution containing in mmol/l: NaCl; 140, CaCl2; 1.2, KCl; 3.0, MgCl2; 1.0 and ascorbic acid; 0.04 according to (Moghaddam and Bunney 1989). The pump was set to a perfusion speed of 2 μl/min and 40 μl samples were collected every 20 min.
30 μl of each sample was injected into the chromatograph. On a 10-port injector (Valco CLOW), with two sample loops mounted in series (2 μl and 20 μl), each brain dialysate sample is loaded in both loops simultaneously. When the valve is switched to inject the main part of the 20 μl sample is introduced into a reverse-phase ion-pairing system for dopamine (DA), norepinephrine (NA), normetanephrine (NM), 3-methoxytyramine(3-MT) and serotonin (5-hydroxytryptamine, 5-HT) determination (large loop), while a small fraction (2 μl, from the small loop) is introduced on a reverse-phase column for the chromatography of the acidic monoamine metabolites 3,4-di-hydroxyphenylacetic acid (DOPAC), homovanillic acid (HVA) and 5-hydroxyindoleacetic acid (5-HIAA). The currents generated by the two EC detectors are converted to digital data and evaluated using Chromelion software (Dionex, Sunnyvale, Calif.) on a PC. The method sample turn over time was 4.5 min and two parallel experiments are normally analysed simultaneously on the system. After the experiment the rats were uncoupled from the perfusion pump and decapitated. Their brains were rapidly taken out and fixed in Neo-fix solution (Kebo-lab, Sweden) for subsequent inspection of probe localisation. The Animal Ethics Committee in Göteborg, Sweden approved the procedures applied in these experiments. • Moghaddam, B. and B. S. Bunney (1989). “Ionic Composition of Microdialysis Perfusing Solution Alters the Pharmacological Responsiveness and Basal Outflow of Striatal Dopamine.” J. Neurochem. 53: 652-654. • Paxinos, G. and C. Watson (1986). […]

[3] = tested on: MK-801 pre-treated rats; assay: Locomotor activity in MK-801 pre-treated rats; conditions: ± SEM; for Locomotor activity, MK + example: MK-801 0.7 mg/kg i.p. 90 minutes before test compound 33 μmol/kg, recorded 30-60 minutes after administration
[4] = tested on: drug-naive rats; assay: Locomotor activity in drug-naive rats; conditions: recorded for 60 minutes, ± SEM

CN1CCC(c2cccc(C(F)(F)F)c2F)CC1 (as salt: hydrochloric acid salt)
melting point: 260 to 261 °C

CCCN1CCC(c2cccc(OC(F)(F)F)c2F)CC1 (as salt: hydrochloric acid salt) [Example 2, 4-[2-fluoro-3-(trifluoromethoxy)phenyl]-1-propyl-piperidine]
melting point: 221 to 222 °C

CCN1CCC(c2cccc(C(F)(F)F)c2F)CC1 (as salt: hydrochloric acid salt) [Example 3, 4-[2-fluoro-3-(trifluoromethyl)phenyl]-1-ethylpiperidine]
melting point: 235 to 237 °C

CCCN1CCC(c2cccc(F)c2F)CC1 (as salt: hydrochloric acid salt) [Example 5, 4-(2,3-difluorophenyl)-1-propylpiperidine]
melting point: 237 to 238 °C

CCCN1CCC(c2cccc(Cl)c2Cl)CC1 (as salt: hydrochloric acid salt) [Example 6, 4-(2,3-dichlorophenyl)-1-propylpiperidine]
melting point: 265 to 267 °C

CCN1CCC(c2cccc(C#N)c2F)CC1 (as salt: oxalic acid salt)
melting point: 156 to 158 °C

OC(CCCN1CCN(c2ncc(F)cn2)CC1)c1ccc(F)cc1 (stereo not shown) [BMY14802]
outcome of clinical studies in schizophrenic patients [1]: failed

C[C@@H]1CN(CCCn2c3ccccc3c3ccccc32)C[C@H](C)N1 [BW234U]
outcome of clinical studies in schizophrenic patients [1]: failed

CCN1CCC(c2cccc(C(F)(F)F)c2F)CC1 [Example 3, 4-[2-fluoro-3-(trifluoromethyl)phenyl]-1-ethylpiperidine]
levels of dopamine in the cortex [2]: elevate
levels of norepinephrine in the cortex [2]: elevate
5-HT in the cortex [2]: 5-HT increase in the cortex

CCCN1CCC(c2cccc(F)c2F)CC1 [Example 5, 4-(2,3-difluorophenyl)-1-propylpiperidine]
levels of dopamine in the cortex [2]: elevate
levels of norepinephrine in the cortex [2]: elevate
5-HT in the cortex [2]: 5-HT increase in the cortex

CCCN1CCC(c2cccc(Cl)c2Cl)CC1 [Example 6, 4-(2,3-dichlorophenyl)-1-propylpiperidine]
levels of dopamine in the cortex [2]: elevate
levels of norepinephrine in the cortex [2]: elevate
5-HT in the cortex [2]: 5-HT increase in the cortex

C[C@]12N[C@H](Cc3ccccc31)c1ccccc12 [MK-801, reference compound]
Locomotor activity, MK-801 ([3]; MK-801 0.7 mg/kg i.p. alone, recorded 30-60 minutes, 0.7 mg/kg): 55810 ± 16124 counts/30 min and 30462 ± 6937 counts/30 min

CCN1CCC(c2cccc(C(F)(F)F)c2F)CC1 [drawing 17]
Locomotor activity ([4]; 11 μmol/kg): 10587 ± 1027 counts/60 min
Locomotor activity ([4]; 33 μmol/kg): 6439 ± 418 counts/60 min
Locomotor activity ([4]; 100 μmol/kg): 4866 ± 941 counts/60 min

CCCN1CCC(c2cccc(Cl)c2Cl)CC1 [drawing 18]
Locomotor activity ([4]; 11 μmol/kg): 7739 ± 1903 counts/60 min
Locomotor activity ([4]; 33 μmol/kg): 7053 ± 659 counts/60 min
Locomotor activity ([4]; 100 μmol/kg): 4272 ± 1831 counts/60 min

CCCN1CCC(c2cccc(F)c2F)CC1 [drawing 19]
Locomotor activity ([4]; 11 μmol/kg): 8894 ± 1039 counts/60 min
Locomotor activity ([4]; 33 μmol/kg): 9958 ± 1835 counts/60 min
Locomotor activity ([4]; 100 μmol/kg): 8154 ± 1388 counts/60 min

CCCN1CCC(c2cccc(Cl)c2Cl)CC1 [drawing 28]
Locomotor activity, MK + example [3]: 12943 ± 3226 (P = 0.06) counts/30 min

CCCN1CCC(c2cccc(F)c2F)CC1 [drawing 29]
Locomotor activity, MK + example [3]: 19826 ± 6949 (P = 0.09) counts/30 min

CN1CCN2c3ncccc3Cc3ccccc3C2C1 (stereo not shown) [mirtazapine, reference compound]
extracellular dopamine in the cortex ([2]; 10 mg/kg s.c., cortex, FIG. 5): increase
extracellular norepinephrine in the cortex ([2]; 10 mg/kg s.c., cortex, FIG. 5): increase
